The nature of this series: Microsomal stability in human liver microsomes assessed as intrinsic clearance. It is filed as ADME, Microsome. Particulars: read-out: CLH. On the technique in general: Microsomes from liver hold many membrane-bound enzymes, among them those of drug oxidation.

This note sets out measurements from ChEMBL document CHEMBL5236614, “Discovery of Potent and Selective Dual Leucine Zipper Kinase/Leucine Zipper-Bearing Kinase Inhibitors with Neuroprotective Properties in In Vitro and In Vivo Models of Amyotrophic Lateral Sclerosis” (J Med Chem, 2022).

For `Nc1ncc(-c2cc(C3CC3)cc(N3C[C@@H]4C[C@H]3CO4)n2)nc1OC(F)F`, the CLint scaled is 15.9 mL/min/kg. Next, `Nc1ncc(-c2cc(C3CC3)nc(N3C[C@@H]4C[C@H]3CO4)c2)nc1OC(F)F`: 15.8 mL/min/kg.
